Source: patent publication US12252484B2, “Pyrazolopyridine compounds for the treatment of autoimmune disease” (Hoffmann-La Roche Inc., priority 2018, dated 2025)
pIC50: −log10 of the molar value.

Biological target: T1, human TLR7 (Homo sapiens, UniProt Q9NYK1)
T1 sequence (Q9NYK1 27-1049): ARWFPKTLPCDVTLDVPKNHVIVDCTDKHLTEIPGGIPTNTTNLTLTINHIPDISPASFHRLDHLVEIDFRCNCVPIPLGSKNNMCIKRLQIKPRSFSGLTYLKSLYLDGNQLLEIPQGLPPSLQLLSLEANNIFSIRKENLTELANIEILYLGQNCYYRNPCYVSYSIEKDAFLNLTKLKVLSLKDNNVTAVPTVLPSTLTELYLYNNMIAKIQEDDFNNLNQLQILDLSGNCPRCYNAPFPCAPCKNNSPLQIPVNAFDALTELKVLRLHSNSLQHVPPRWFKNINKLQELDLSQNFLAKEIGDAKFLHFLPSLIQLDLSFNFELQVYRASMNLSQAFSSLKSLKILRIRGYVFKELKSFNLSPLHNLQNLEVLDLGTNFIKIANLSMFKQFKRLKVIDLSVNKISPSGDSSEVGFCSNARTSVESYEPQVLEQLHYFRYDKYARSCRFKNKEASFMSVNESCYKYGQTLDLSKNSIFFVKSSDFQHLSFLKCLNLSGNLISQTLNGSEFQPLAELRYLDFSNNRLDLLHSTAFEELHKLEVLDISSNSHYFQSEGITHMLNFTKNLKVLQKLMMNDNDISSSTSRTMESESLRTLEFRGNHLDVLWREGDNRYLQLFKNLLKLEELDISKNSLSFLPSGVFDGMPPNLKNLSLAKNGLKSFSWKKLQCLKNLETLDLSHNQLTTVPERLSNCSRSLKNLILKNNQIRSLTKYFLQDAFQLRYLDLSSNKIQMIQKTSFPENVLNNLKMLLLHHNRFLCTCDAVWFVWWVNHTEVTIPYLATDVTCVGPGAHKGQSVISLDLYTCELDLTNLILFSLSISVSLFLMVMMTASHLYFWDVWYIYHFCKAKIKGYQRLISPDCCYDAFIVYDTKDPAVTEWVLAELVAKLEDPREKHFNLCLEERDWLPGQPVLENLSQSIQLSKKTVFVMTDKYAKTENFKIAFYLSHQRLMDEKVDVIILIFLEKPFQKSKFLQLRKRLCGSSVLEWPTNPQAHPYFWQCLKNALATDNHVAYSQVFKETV
Assay: HEK293-Blue-hTLR-7 cells assay (SEAP reporter, R848 stimulation)
Type: cell-based
Conditions: HEK293-Blue-hTLR-7 cells, R848 ligand, 20 hrs incubation; read-out: TLR7 IC50
Experimental: The following tests were carried out in order to determine the activity of the compounds of formula (I) in HEK293-Blue-hTLR-7/8/9 cells assay.
HEK293-Blue-hTLR-7 Cells Assay:
A stable HEK293-Blue-hTLR-7 cell line was purchased from InvivoGen (Cat. #: hkb-htlr7, San Diego, California, USA). These cells were originally designed for studying the stimulation of human TLR7 by monitoring the activation of NF-κB. A SEAP (secreted embryonic alkaline phosphatase) reporter gene was placed under the control of the IFN-β minimal promoter fused to five NF-κB and AP-1-binding sites. The SEAP was induced by activating NF-κB and AP-1 via stimulating HEK-Blue hTLR7 cells with TLR7 ligands. Therefore the reporter expression was declined by TLR7 antagonist under the stimulation of a ligand, such as R848 (Resiquimod), for incubation of 20 hrs. The cell culture supernatant SEAP reporter activity was determined using QUANTI-Blue™ kit (Cat. #: rep-qb1, Invivogen, San Diego, Ca, USA) at a wavelength of 640 nm, a detection medium that turns purple or blue in the presence of alkaline phosphatase.
HEK293-Blue-hTLR7 cells were incubated at a density of 250,000˜450,000 cells/mL in a volume of 170 μL in a 96-well plate in Dulbecco's Modified Eagle's medium (DMEM) containing 4.5 g/L glucose, 50 U/mL penicillin, […], […], 2 mM L-glutamine, 10% (v/v) heat-inactivated fetal bovine serum with addition of 20 μL test compound in a serial dilution in the presence of final DMSO at 1% and 10 μL of 20 uM R848 in above DMEM, perform incubation under 37° C. in a CO2 incubator for 20 hrs. Then 20 μL of the supernatant from each well was incubated with 180 μL Quanti-blue substrate solution at 37° C. for 2 hrs and the absorbance was read at 620˜655 nm using a spectrophotometer. The signalling pathway that TLR7 activation leads to downstream NF-κB activation has been widely accepted, and therefore similar reporter assay was modified for evaluating TLR7 antagonist.

Row | SMILES | pIC50
1 | C[C@@H]1CN(c2ccc(C#N)n3nccc23)C[C@H](C(=O)NC2CCN(C)CC2)O1 [Example 1, (2R,6R)-4-(7-cyanopyrazolo[1,5-a]pyridin-4-yl)-6-methyl-N-(1-methyl-4-piperidyl)morpholine-2-carboxamide] | 7.77
2 | C[C@@H]1CN(c2ccc(C#N)n3nccc23)C[C@H](C(=O)N[C@H]2CNC[C@H]2F)O1 [Example 2, (2R,6R)-4-(7-cyanopyrazolo[1,5-a]pyridin-4-yl)-N-[(3S,4R)-4-fluoropyrrolidin-3-yl]-6-methyl-morpholine-2-carboxamide] | 7.04
3 | C[C@@H]1CN(c2ccc(C#N)n3nccc23)C[C@H](C(=O)NC2CC3(CNC3)C2)O1 [Example 3, (2R,6R)-N-(2-azaspiro[3.3]heptan-6-yl)-4-(7-cyanopyrazolo[1,5-a]pyridin-4-yl)-6-methyl-morpholine-2-carboxamide] | 6.80
4 | C[C@@H]1CN(c2ccc(C#N)n3nccc23)C[C@H](C(=O)NC2CCOCC2)O1 [Example 4, (2R,6R)-4-(7-cyanopyrazolo[1,5-a]pyridin-4-yl)-6-methyl-N-tetrahydropyran-4-yl-morpholine-2-carboxamide] | 6.39
5 | C[C@@H]1CN(c2ccc(C#N)n3nccc23)C[C@H](C(=O)NC2CNC[C@H]2F)O1 (stereo partly drawn) [Example 5, Cis-(2R,6R)-4-(7-cyanopyrazolo[1,5-a]pyridin-4-yl)-6-methyl-N-(4-fluoropyrrolidin-3-yl) morpholine-2-carboxamide] | 7.14
6 | C[C@@H]1CN(c2ccc(C#N)n3nccc23)C[C@H](C(=O)NC2CCCNCC2)O1 (stereo partly drawn) [Example 6, (2R,6R)-N-(azepan-4-yl)-4-(7-cyanopyrazolo[1,5-a]pyridin-4-yl)-6-methyl-morpholine-2-carboxamide] | 7.80
7 | C[C@@H]1CN(c2ccc(C#N)n3nccc23)C[C@H](C(=O)NCC2CN(C)CCO2)O1 (stereo partly drawn) [Example 7, (2R,6R)-4-(7-cyanopyrazolo[1,5-a]pyridin-4-yl)-6-methyl-N-[(4-methylmorpholin-2-yl)methyl]morpholine-2-carboxamide] | 7.17
8 | C[C@@H]1CN(c2ccc(C#N)n3nccc23)C[C@H](C(=O)N2CC(N)C2)O1 [Example 8, 4-[(2R,6R)-2-(3-aminoazetidine-1-carbonyl)-6-methyl-morpholin-4-yl]pyrazolo[1,5a]pyridine-7-carbonitrile] | 6.72
9 | COCCNC(=O)[C@H]1CN(c2ccc(C#N)n3nccc23)C[C@@H](C)O1 [Example 9, (2R,6R)-4-(7-cyanopyrazolo[1,5-a]pyridin-4-yl)-N-(2-methoxyethyl)-6-methyl-morpholine-2-carboxamide] | 6.19
10 | C[C@@H]1CN(c2ccc(C#N)n3nccc23)C[C@H](C(=O)NC23CC4CC(CC(C4)C2)C3)O1 [Example 12, (2R,6R)-N-(1-adamantyl)-4-(7-cyanopyrazolo[1,5-a]pyridin-4-yl)-6-methyl-morpholine-2-carboxamide] | 6.68
11 | CCC(O)CNC(=O)[C@H]1CN(c2ccc(C#N)n3nccc23)C[C@@H](C)O1 (stereo partly drawn) [Example 13, (2R,6R)-4-(7-cyanopyrazolo[1,5-a]pyridin-4-yl)-N-(2-hydroxybutyl)-6-methyl-morpholine-2-carboxamide] | 6.31
12 | C[C@@H]1CN(c2ccc(C#N)n3nccc23)C[C@H](C(=O)NC2CC3CCCC(C2)N3)O1 (stereo partly drawn) [Example 14, (2R,6R)-N-(9-azabicyclo[3.3.1]nonan-3-yl)-4-(7-cyanopyrazolo[1,5-a]pyridin-4-yl)-6-methyl-morpholine-2-carboxamide] | 8.15
13 | C[C@@H]1CN(c2ccc(C#N)n3nccc23)C[C@H](C(=O)NC23CC(CO)(C2)C3)O1 [Example 15, (2R,6R)-4-(7-cyanopyrazolo[1,5-a]pyridin-4-yl)-N-[3-(hydroxymethyl)-1-bicyclo[1.1.1]pentanyl]-6-methyl-morpholine-2-carboxamide] | 6.66
14 | C[C@@H]1CN(c2ccc(C#N)n3nccc23)C[C@H](C(=O)NC(C)(C)CO)O1 [Example 16, (2R,6R)-4-(7-cyanopyrazolo[1,5-a]pyridin-4-yl)-N-(2-hydroxy-1,1-dimethyl-ethyl)-6-methyl-morpholine-2-carboxamide] | 6.34
15 | CCC(C)(C)NC(=O)[C@H]1CN(c2ccc(C#N)n3nccc23)C[C@@H](C)O1 [Example 17, (2R,6R)-4-(7-cyanopyrazolo[1,5-a]pyridin-4-yl)-N-(1,1-dimethylpropyl)-6-methyl-morpholine-2-carboxamide] | 6.44
16 | C[C@@H]1CN(c2ccc(C#N)n3nccc23)C[C@H](C(=O)NCC2CNCC2(F)F)O1 (stereo partly drawn) [Example 18, (2R,6R)-4-(7-cyanopyrazolo[1,5-a]pyridin-4-yl)-N-[(4,4-difluoropyrrolidin-3-yl)methyl]-6-methyl-morpholine-2-carboxamide] | 7.26
17 | C[C@@H]1CN(c2ccc(C#N)n3nccc23)C[C@H](C(=O)NC2(C)CCNCC2)O1 [Example 19, (2R,6R)-4-(7-cyanopyrazolo[1,5-a]pyridin-4-yl)-6-methyl-N-(4-methyl-4-piperidyl)morpholine-2-carboxamide] | 7.00
18 | C[C@@H]1CN(c2ccc(C#N)n3nccc23)C[C@H](C(=O)N[C@H]2CC[C@@H](O)CC2)O1 [Example 20, Cis-(2R,6R)-4-(7-cyanopyrazolo[1,5-a]pyridin-4-yl)-N-(4-hydroxycyclohexyl)-6-methyl-morpholine-2-carboxamide] | 6.46
19 | C[C@@H]1CN(c2ccc(C#N)n3nccc23)C[C@H](C(=O)N[C@H]2CC[C@H](O)CC2)O1 [Example 21, Trans-(2R,6R)-4-(7-cyanopyrazolo[1,5-a]pyridin-4-yl)-N-(4-hydroxycyclohexyl)-6-methyl-morpholine-2-carboxamide] | 6.38
20 | C[C@@H]1CN(c2ccc(C#N)n3nccc23)C[C@H](C(=O)NC2CC3COCC(C2)N3)O1 (stereo partly drawn) [Example 22, Endo-(2R,6R)-4-(7-cyanopyrazolo[1,5-a]pyridin-4-yl)-6-methyl-N-[3-oxa-9-azabicyclo[3.3.1]nonan-7-yl]morpholine-2-carboxamide] | 8.00
21 | C[C@@H]1CN(c2ccc(C#N)n3nccc23)C[C@H](C(=O)NC2CC3CCC(C2)N3)O1 (stereo partly drawn) [Example 23, Exo-(2R,6R)-N-[8-azabicyclo[3.2.1]octan-3-yl]-4-(7-cyanopyrazolo[1,5-a]pyridin-4-yl)-6-methyl-morpholine-2-carboxamide] | 7.57
22 | C[C@@H]1CN(c2ccc(C#N)n3nccc23)C[C@H](C(=O)NC2CCNCC2)O1 [Example 24, (2R,6R)-4-(7-cyanopyrazolo[1,5-a]pyridin-4-yl)-6-methyl-N-(4-piperidyl)morpholine-2-carboxamide] | 7.37
23 | C[C@@H]1CN(c2ccc(C#N)n3nccc23)C[C@H](C(=O)NC2CCNC2)O1 (stereo partly drawn) [Example 25, (2R,6R)-4-(7-cyanopyrazolo[1,5-a]pyridin-4-yl)-6-methyl-N-pyrrolidin-3-yl-morpholine-2-carboxamide] | 6.82
24 | C[C@@H]1CN(c2ccc(C#N)n3nccc23)C[C@H](C(=O)NC2C3CCC2CNC3)O1 (stereo partly drawn) [Example 26, (2R,6R)-N-(3-azabicyclo[3.2.1]octan-8-yl)-4-(7-cyanopyrazolo[1,5-a]pyridin-4-yl)-6-methyl-morpholine-2-carboxamide] | 7.70
